Measured values taken from patent US8410026B2, “Pyridazine fungicides” (Syngenta Crop Protection LLC, priority 2008, dated 2013).

Key:
[1] = tested on: Alternaria solani; assay: Alternaria solani / tomato / preventive (action against Alternaria on tomato); assay type: in vivo; conditions: preventive spray, tomato plants cv. Roter Gnom, inoculated 2 days after application, assessed after 4 days incubation, read-out: inhibit fungal infestation
Description: (§1) Alternaria solani/Tomato/Preventive (Action Against Alternaria on Tomato) 4 weeks old tomato plants cv. Roter Gnom are treated with the formulated test compound in a spray chamber. Two days after application tomato plants are inoculated by spraying a spore suspension on the test plants. After an incubation period of 4 days at 22° C./18° C. and 95% r. h. in a greenhouse the disease incidence is assessed.

[2] = tested on: Botryotinia fuckeliana (Botrytis cinerea); assay: Botryotinia fuckeliana (Botrytis cinerea) / tomato / preventive (action against Botrytis on tomato); assay type: in vivo; conditions: preventive spray, tomato plants cv. Roter Gnom, inoculated 2 days after application, assessed after 3 days incubation, read-out: inhibit fungal infestation
Description: as §1, with “Botryotinia fuckeliana (Botrytis cinerea)/Tomato/Preventive (Action” for “Alternaria solani/Tomato/Preventive (Action”, “Against Botrytis” for “Against Alternaria”, “of 3” for “of 4”, “at 20°” for “at 22° C./18°”

[3] = tested on: Puccinia recondite f. sp. tritici; assay: Puccinia recondite f. sp. tritici / wheat / preventive (action against brown rust on wheat); assay type: in vivo; conditions: preventive spray, wheat plants cv. Arina, inoculated 1 day after application, assessed 11 days after inoculation, read-out: inhibit fungal infestation
Description: Puccinia recondite f. sp. tritici/Wheat/Preventive (Action Against Brown Rust on Wheat) 1 week old wheat plants cv. Arina are treated with the formulated test compound in a spray chamber. One day after application wheat plants are inoculated by spraying a spore suspension (1×105 uredospores/ml) on the test plants. After an incubation period of 1 day at 20° C. and 95% r. h. plants are kept for 10 days 20° C./18° C. (day/night) and 60% r. h. in a greenhouse. The disease incidence is assessed 11 days after inoculation.

[4] = tested on: Magnaporthe qrisea (Pyricularia oryzae); assay: whole plant or invertebrate; assay type: in vivo; conditions: read-out: inhibit fungal infestation
[5] = tested on: Pyrenophora teres (Helminthosporium teres); assay: Pyrenophora teres (Helminthosporium teres) / barley / preventive (action against net blotch on barley); assay type: in vivo; conditions: preventive spray, barley plants cv. Regina, inoculated 2 days after application, assessed after 4 days incubation, read-out: inhibit fungal infestation
Description: Pyrenophora teres (Helminthosporium teres)/Barley/Preventive (Action Against Net Blotch on Barley) 1-week-old barley plants cv. Regina are treated with the formulated test compound in a spray chamber. Two days after application barley plants are inoculated by spraying a spore suspension (2.6×10^4 conidia/ml) on the test plants. After an incubation period of 4 days at 20° C. and 95% r. h. the disease incidence is assessed.

[6] = tested on: Mycosphaerella graminicola (Septoria tritici); assay: Mycosphaerella graminicola (Septoria tritici) / wheat / preventive (action against Septoria leaf spot on wheat); assay type: in vivo; conditions: Zymoseptoria tritici, preventive spray, wheat plants cv. Riband, inoculated 1 day after application, assessed 16-18 days after inoculation, read-out: inhibits fungal infestation
Description: Mycosphaerella graminicola (Septoria tritici)/Wheat/Preventive (Action Against Septoria Leaf Spot on Wheat) 2 weeks old wheat plants cv. Riband are treated with the formulated test compound in a spray chamber. One day after application wheat plants are inoculated by spraying a spore suspension (10^6 conidia/ml) on the test plants. After an incubation period of 1 day at 22° C./21° C. and 95% r. h. plants are kept at 22° C./21° C. and 70% r.h. in a greenhouse. The disease incidence is assessed 16-18 days after inoculation.

[7] = tested on: Uncinula necator (Erysiphe necator); assay: Uncinula necator (Erysiphe necator) / grape / preventive (action against powdery mildew on grape); assay type: in vivo; conditions: preventive spray, grape seedlings cv. Gutedel, inoculated 1 day after application, assessed after 7 days incubation, read-out: inhibit fungal infestation
Description: Uncinula necator (Erysiphe necator)/Grape/Preventive (Action Against Powdery Mildew on Grape) 5 weeks old grape seedlings cv. Gutedel are treated with the formulated test compound in a spray chamber. One day after application grape plants are inoculated by shaking plants infected with grape powdery mildew above the test plants. After an incubation period of 7 days at 24° C./22° C. and 70% r. h. under a light regime of 14/10 h (light/dark) the disease incidence is assessed.

| SMILES | inhibition at 200 ppm [1] | inhibition at 200 ppm [2] | inhibition at 200 ppm [3] | inhibition at 200 ppm [4] | inhibition at 200 ppm [5] | inhibition at 200 ppm [6] | inhibition at 200 ppm [7] | melting point |
| --- | --- | --- | --- | --- | --- | --- | --- | --- |
| Cc1nnc(Cl)c(-c2c(F)cccc2Cl)c1-c1ccc(Cl)nc1 [I.a.02, 3-chloro-4-(2-chloro-6-fluoro-phenyl)-5-(6-chloro-pyridin-3-yl)-6-methyl-pyridazine] | ≥ 80% | ≥ 80% | ≥ 80% | ≥ 80% | ≥ 80% | ≥ 80% | ≥ 80% |  |
| COc1nnc(C)c(-c2ccc(Cl)nc2)c1-c1c(F)cc(F)cc1F [I.a.12, 4-(6-chloro-pyridin-3-yl)-6-methoxy-3-methyl-5-(2,4,6-trifluoro-phenyl)-pyridazine] | ≥ 80% | ≥ 80% | ≥ 80% |  | ≥ 80% |  | ≥ 80% | 123 to 124 °C |
| CCc1nnc(Cl)c(-c2c(F)cc(F)cc2F)c1-c1ccc(Cl)nc1 [I.a.14, 3-chloro-5-(6-chloro-pyridin-3-yl)-6-ethyl-4-(2,4,6-trifluoro-phenyl)-pyridazine] | ≥ 80% |  | ≥ 80% | ≥ 80% | ≥ 80% | ≥ 80% | ≥ 80% | 125 to 126 °C |
| CC(C)c1nnc(Cl)c(-c2c(F)cc(F)cc2F)c1-c1ccc(Cl)nc1 [I.a.17, 3-chloro-5-(6-chloro-pyridin-3-yl)-6-isopropyl-4-(2,4,6-trifluoro-phenyl)-pyridazine] |  |  |  |  |  |  |  | 146 to 149 °C |
| COc1cc(F)c(-c2c(Cl)nnc(C)c2-c2ccc(Cl)nc2)c(F)c1 [I.a.20, 3-chloro-5-(6-chloro-pyridin-3-yl)-4-(2,6-difluoro-4-methoxy-phenyl)-6-methyl-pyridazine] | ≥ 80% |  | ≥ 80% | ≥ 80% | ≥ 80% | ≥ 80% |  | 148 to 149 °C |
| Cc1nnc(Cl)c(-c2c(F)cc(F)cc2F)c1-c1cnc(Cl)c(Cl)c1 [I.g.11, 3-chloro-5-(5,6-dichloro-pyridin-3-yl)-6-methyl-4-(2,4,6-trifluoro-phenyl)-pyridazine] |  |  |  | ≥ 80% |  |  | ≥ 80% | 185 to 188 °C |
